From PMC8179002, “Inhibitors of thiol-mediated uptake” (Chemical Science, 2020)
Like-named read-outs stand apart in the source and are kept apart here. Bridge positions count the residues as written; N and C are the ends. Peptide text beside a SMILES is read from it.

Legend:
[1] = tested on: cellular uptake of 1 in HeLa Kyoto cells; experiment: cells; format: cell-based; details: for IC50: read-out: IC50, inhibition of cellular uptake of 1; for minimal effective concentration: read-out: MIC, inhibition of cellular uptake of 1; for MIC (concentration that causes ∼15% reduction of reporter uptake), against reporter 1: pre-incubation time not given (Fig. 2: 1 h pre-incubation, 30 min with reporter; some 15 min)
Description: (§1) With COCs 1 and 2 as cell-penetrating reporters, a fully automated, fluorescent microscopy image-based high-content high-throughput (HCHT)[19] inhibitor screening assay was developed. HeLa cells in multiwell plates are incubated with a reporter at constant and inhibitors at varying concentrations and incubation times. Hindered reporter uptake then causes decrease of fluorescence inside of cells (Fig. 3a). Automated data analysis[19] was established to extract average fluorescence intensity per cell and, at the same time, cell viability from propidium iodide negative nuclei count (Fig. 3 and S3–S6 ^†). Standard assay conditions consisted of pre-incubation of HeLa cells with inhibitors for different periods of time, followed by the removal of inhibitors and the addition of reporters, thus excluding possible interactions between the two in the extracellular environment. In alternative co-incubation conditions, inhibitors were not removed before the addition of reporters to allow for eventual interactions between the two.
(§2) 4. High-Content High-Throughput (HCHT) Inhibitor Screening
(§3) 4.1. General Procedure for HCHT Inhibitor Screening
(§4) 4.1.1. Pre-Incubation of Inhibitors
(§5) HeLa Kyoto cells were seeded at 1.2 ×10^4 cells/well in FluoroBrite DMEM + 10% FBS on μ-Plate 96-well Black ibiTreat sterile and kept at 37 °C with 5% CO2 overnight. Next day, serial dilutions of the inhibitors in PBS (10x final concentration), reporter 1 or 2 (100 μM in PBS) and a solution of Hoechst 33342 (100 μg/mL) and PI (10 μg/mL) in PBS were prepared freshly in a 96-well V-bottom plate. Then, cells were washed with PBS ([…]) and the media was exchanged to FluoroBrite DMEM (4 x 150 μL/well) using a plate washer (Biotek EL406®), keeping always a final volume of 135 μL/well. The inhibitor solutions from the V-bottom plate were added to the cells (15 μL/well, 10x final concentration in PBS) using an electronic multichannel pipettes to reach a final volume of 150 μL/well. Cells were incubated for the time of interest (for details of each inhibitors, see Section 4.3 and 4.4) at 37 °C with 5%
(§6) CO2. After this, cells were washed again using the plate washer and reporter solution 1 or 2 from the V-bottom plate was added (15 μL/well) using an electronic multichannel pipettes to reach a final volume of 150 μL/well and a final concentration of 10 μM, except for the control wells, where only PBS was added (15 μL/well). After 30 min of incubation at 37 °C with 5% CO2, the plate was washed again using the plate washer. Then, the solution of Hoechst 33342 and PI from V-bottom plate was added (15 μL/well) using an electronic multichannel pipettes to reach a final volume of 150 μL/well. After 15 min of incubation at 37 °C with 5% CO2, the plate was washed one last time and the cells were kept in clean FluoroBrite DMEM. During imaging, samples were kept at 37 °C with 5% CO2 in the microscope.
(§7) 4.1.2. Co-Incubation of Inhibitors and Reporters […]
(§8) serial dilutions of the inhibitors in PBS (10x final concentration), reporter 1 or 2 (110 μM in […]
(§9) freshly in a 96-well V-bottom plate. Then, cells were washed with the plate washer. The inhibitor solutions from the V-bottom plate were added to the cells (15 μL/well, 10x final concentration in PBS) using an electronic multichannel pipettes to reach a final volume of 150 μL/well. Cells were incubated for the time of interest (for details of each inhibitors, see Section 4.3 and 4.4) at 37 °C with 5% CO2. Reporter solution 1 or 2 from V-bottom plate was then added (15 μL/well) using an electronic multichannel pipettes to reach a final volume of 165 μL/well and a final concentration of 10 μM 30 min before the next washing process, except for the control wells, where only PBS was added (15 μL/well). The plate was washed again using the plate washer. The solution of Hoechst 33342 and PI from V-bottom plate was added (15 μL/well) using an electronic multichannel pipettes to reach a final volume of 150 μL/well. After […]

[2] = tested on: cellular uptake of 2 in HeLa Kyoto cells; experiment: cells; format: cell-based; details: for MIC against reporter 2: upon co-incubation
Description: as §1, §2, §3, §4, §5, §6, §7, §8, §9

[3] = HeLa Kyoto, 0.5 h, HeLa, tpre 0.5 h, then tco 0.5 h co-incubation of inhibitor and 1 (10 µM)
[4] = HeLa Kyoto, 0.5 h, HeLa, tpre 5.5 h with FBS, then tco 0.5 h co-incubation of inhibitor and 1 (10 µM)
[5] = HeLa Kyoto, 0.5 h, HeLa, tpre 23.5 h with FBS, then tco 0.5 h co-incubation of inhibitor and 1 (10 µM)
[6] = HeLa Kyoto, 2 h, HeLa, tpre 2 h with inhibitor, removal, tinc 0.5 h with 1 (10 µM)
[7] = HeLa Kyoto, 4 h, HeLa, tpre 4 h with inhibitor, removal, tinc 0.5 h with 1 (10 µM)
[8] = HeLa Kyoto, HeLa, tpre 5.5 h with FBS, then tco 0.5 h co-incubation of inhibitor and 1 (10 µM)
[9] = HeLa Kyoto, HeLa, tpre 23.5 h with FBS, then tco 0.5 h co-incubation of inhibitor and 1 (10 µM)
[10] = HeLa, tpre 1 h with inhibitor, removal, tinc 0.5 h with 1 (10 µM)
[11] = HeLa, tpre 2 h with inhibitor, removal, tinc 0.5 h with 1 (10 µM)
[12] = HeLa, tpre 0.5 h, then tco 0.5 h co-incubation of inhibitor and 2 (10 µM)
[13] = HeLa, tpre 1 h with inhibitor, removal, tinc 0.5 h with 2 (10 µM)
[14] = HeLa Kyoto, 0.5 h, HeLa, tpre 0.5 h with inhibitor, removal, tinc 0.5 h with 1 (10 µM)
[15] = HeLa Kyoto, 1 h, HeLa, tpre 1 h with inhibitor, removal, tinc 0.5 h with 1 (10 µM)
[16] = HeLa Kyoto, HeLa, tpre 1 h with inhibitor, removal, tinc 0.5 h with 1 (10 µM)
[17] = HeLa Kyoto, HeLa, tpre 2 h with inhibitor, removal, tinc 0.5 h with 1 (10 µM)
[18] = HeLa, tpre 0.5 h, then tco 0.5 h co-incubation of inhibitor and 2 (10 µM), read-out: IC50, inhibition of cellular uptake of 2
[19] = HeLa, tpre 1 h with inhibitor, removal, tinc 0.5 h with 2 (10 µM), read-out: IC50, inhibition of cellular uptake of 2
[20] = HeLa, tpre 1.5 h, then tco 0.5 h co-incubation of inhibitor and 2 (10 µM)
[21] = HeLa, tpre 1.5 h, then tco 0.5 h co-incubation of inhibitor and 2 (10 µM), read-out: IC50, inhibition of cellular uptake of 2
[22] = HeLa, tpre 2 h with inhibitor, removal, tinc 0.5 h with 2 (10 µM)
[23] = HeLa, tpre 2 h with inhibitor, removal, tinc 0.5 h with 2 (10 µM), read-out: IC50, inhibition of cellular uptake of 2
[24] = HeLa, tpre 4 h with inhibitor, removal, tinc 0.5 h with 2 (10 µM)
[25] = HeLa, tpre 4 h with inhibitor, removal, tinc 0.5 h with 2 (10 µM), read-out: IC50, inhibition of cellular uptake of 2
[26] = HeLa, tpre 0.5 h with inhibitor, removal, tinc 0.5 h with 1 (10 µM)

Row | SMILES | IC50 [1, 3] | minimal effective concentration [1, 3] | minimal effective concentration [1, 4] | minimal effective concentration [1, 5] | minimal effective concentration [1, 6] | minimal effective concentration [1, 7] | IC50 [1, 8] | IC50 [1, 9] | IC50 [1, 10] | IC50 [1, 11] | MIC, inhibition of cellular uptake of 2 [2, 12] | MIC, inhibition of cellular uptake of 2 [2, 13] | IC50 [1, 14] | minimal effective concentration [1, 14] | minimal effective concentration [1, 15] | IC50 [1, 16] | IC50 [1, 17] | MIC (concentration that causes ∼15% reduction of reporter uptake), against reporter 1 ([1]; HeLa) | IC50 [2, 18] | MIC, inhibition of cellular uptake of 2 [2, 24] | further results
1 | [O-][S+]1CC(O)C(O)CS1 (centres unmarked) [compound 17] | > 500 µM | 100 µM | 250 µM | 150 µM | 300 µM | 250 µM | > 1000 µM | > 500 µM | > 500 µM | > 500 µM | – | – | – | – | – | – | – | – | – | – | minimal effective concentration [1, 10]: 250 µM; IC50 ([1]; HeLa, tpre 4 h with inhibitor, removal, tinc 0.5 h with 1 (10 µM)): > 500 µM
2 | CCN1C(=O)C2SSSSC1C(=O)N2CC(=O)O (centres unmarked) [compound 3] | 2.7 ± 0.1 µM | < 0.5 µM | < 0.5 µM | 30 µM | < 0.1 µM | < 0.1 µM | 9.6 ± 1.2 µM | > 50 µM | – | – | 17 µM | > 20 µM | 1.7 ± 0.2 µM | < 0.1 µM | < 0.1 µM | 1.3 ± 0.2 µM | 2.7 ± 0.6 µM | < 0.1 µM | – | – | IC50 ([2]; HeLa Kyoto, 0.5 h, HeLa, tpre 0.5 h, then tco 0.5 h co-incubation of inhibitor and 2 (10 µM), read-out: IC50, inhibition of cellular uptake of 2): > 20 µM; IC50 ([2]; HeLa Kyoto, HeLa, tpre 1 h with inhibitor, removal, tinc 0.5 h with 2 (10 µM), read-out: IC50, inhibition of cellular uptake of 2): > 20 µM; IC50 ([2]; HeLa Kyoto, HeLa, tpre 6 h with FBS, removal, tinc 0.5 h with 2 (10 µM), read-out: IC50, inhibition of cellular uptake of 2): > 100 µM; MIC, inhibition of cellular uptake of 2 ([2]; HeLa, tpre 6 h with FBS, removal, tinc 0.5 h with 2 (10 µM)): 40 µM; IC50 ([1]; HeLa Kyoto, HeLa, tpre 4 h with inhibitor, removal, tinc 0.5 h with 1 (10 µM)): 8.2 ± 3.2 µM
3 | N[C@H]1CSSC[C@@H](C(=O)N[C@@H](CCC(=O)O)C(=O)O)NC(=O)CNC1=O [compound 19] (H-CGCE-OH; disulfide 1-3) | – | – | – | – | – | – | – | – | > 2000 µM | > 2000 µM | 5 µM | > 1000 µM | – | – | – | – | – | ≈ 300 μM | 46 ± 5 µM | 900 µM | IC50 [2, 19]: > 1000 µM; MIC, inhibition of cellular uptake of 2 [2, 20]: 7 µM; IC50 [2, 21]: 58 ± 10 µM; MIC, inhibition of cellular uptake of 2 [2, 22]: > 1000 µM; IC50 [2, 23]: > 1000 µM; IC50 [2, 25]: > 1000 µM; MIC against reporter 2 ([2]; HeLa): ≈ 5 μM; minimal effective concentration ([1]; 1 h): 400 µM; minimal effective concentration ([1]; 2 h): 400 µM; IC50 [1, 26]: > 2000 µM
4 | O=C(O)CC[C@H](NC(=O)CCCCC1CCSS1(=O)=O)C(=O)O (some centres unmarked) [compound 15] | – | – | 65 µM | 55 µM | 50 µM | – | 258 ± 33 µM | 219 ± 16 µM | – | – | – | – | 407 ± 49 µM | 100 µM | 50 µM | 306 ± 30 µM | 298 ± 31 µM | – | – | 150 µM | IC50 ([2]; HeLa Kyoto, read-out: IC50, inhibition of cellular uptake of 2, HeLa, tpre 4 h with inhibitor, removal, tinc 0.5 h with 2 (10 µM)): > 500 µM; IC50 ([2]; HeLa Kyoto, read-out: IC50, inhibition of cellular uptake of 2, HeLa, tpre 23.5 h with FBS, then tco 0.5 h co-incubation of inhibitor and 2 (10 µM)): > 500 µM; MIC, inhibition of cellular uptake of 2 ([2]; HeLa, tpre 23.5 h with FBS, then tco 0.5 h co-incubation of inhibitor and 2 (10 µM)): < 20 µM
5 | N[C@H]1CSSC[C@@H](C(=O)NCC(=O)O)NC(=O)[C@H](CCC(=O)O)NC1=O [compound 18] (H-CECG-OH; disulfide 1-3) | – | – | – | – | – | – | – | – | > 2000 µM | > 2000 µM | 4 µM | 300 µM | – | – | – | – | – | ≈ 300 μM | 44 ± 5 µM | 100 µM | IC50 [2, 19]: > 1000 µM; MIC, inhibition of cellular uptake of 2 [2, 20]: 4 µM; IC50 [2, 21]: 41 ± 4 µM; MIC, inhibition of cellular uptake of 2 [2, 22]: 200 µM; IC50 [2, 23]: > 1000 µM; IC50 [2, 25]: 859 ± 140 µM; MIC against reporter 2 ([2]; HeLa): ≈ 5 μM; minimal effective concentration ([1]; 2 h): 200 µM; IC50 ([1]; HeLa, tpre 0.5 h, then tco 0.5 h co-incubation of inhibitor and 1 (10 µM)): > 500 µM; IC50 [1, 26]: > 2000 µM; IC50 ([1]; HeLa, tpre 5.5 h with FBS, then tco 0.5 h co-incubation of inhibitor and 1 (10 µM)): 1000 ± 110 µM; IC50 ([1]; HeLa, tpre 23.5 h with FBS, then tco 0.5 h co-incubation of inhibitor and 1 (10 µM)): 1000 ± 40 µM
